Read-outs that look alike come from different tables or passages of the source.
Experiments:
eosinophils [1] = system: eosinophils
Method: (§1) The phase 3 clinical trial was a double-blind study of dexpramipexole in ALS patients randomized 1:1 to placebo or dexpramipexole 300 mg daily treatment. Hematology parameters were collected as part of routine safety monitoring. Eosinophil and basophil counts were retrospectively analyzed by visit.
Eosinophil levels were summarized over available time points and analyzed by ANOVA testing the effect of treatment vs. placebo on mean changes in serum eosinophil counts from baseline. Subjects with baseline eosinophils from 0 to 0.02×10^9/L (constituting less than 2% of all subjects analyzed) were censored from the primary analysis because of the inherent limitation to observe a decline from baseline.
Statistical analysis of the change from baseline was performed at month 6 to remove the effect of study dropouts in later months.

eosinophils [2] = conditions: OVA mice, 100 mg/kg, day 42, p=0.0041
[3] = system: infiltrating white blood cells; conditions: OVA mice, 30 and 100 mg/kg, day 42, compared to OVA
basophils = conditions: 300 mg daily, remained reduced through month 12
Method: as §1
Changes in basophil counts were also analyzed in the Phase 3 trial.

eosinophils [4] = conditions: for mean eosinophils at week 16 recovered to, of baseline levels: after one-month washout following week 12
Method: The Phase 2 trial was a two-part, double-blind study that evaluated the safety, tolerability, and clinical effects of dexpramipexole in ALS patients.
In Part 1, subjects were randomized to placebo (n=27), 50 mg/day (n=23), 150 mg/day (n=26), or 300 mg/day dexpramipexole (n=26) for 12 weeks.

eosinophils [5] = system: eosinophils; remark: listed apart in the source
Method: In a 39-week repeat-dose toxicology study, minipigs were dosed at 0, 7.5, 25, and 75 mg/kg dexpramipexole by daily oral gavage through Study Day 45 and at 0, 7.5, 25, and 50 mg/kg dexpramipexole from Study Day 46 to study completion.

[6] = humans, exposures up to 18 months

## CCCN[C@@H]1CCc2nc(N)sc2C1 [dexpramipexole, (6R)-2-amino-4,5,6,7-tetrahydro-6-(propylamino)benzothiazole]
Eosinophils [1]; 300 mg daily, after 8-12 weeks of treatment, persisted for the duration of the trial
  effect on peripheral blood eosinophil count: profound decrease
Eosinophils [1]; Phase 3 subject with highest baseline eosinophil count, persisted through month 12
  effect on eosinophil counts in a subject with elevated baseline eosinophil counts: decrease in eosinophil counts
Eosinophils [1]; subjects (n=42) with baseline >0.25×10^9/L, after 6 months of treatment
  decrease in eosinophil count in subjects with higher eosinophil counts: 75%
Eosinophils [2]
  circulating levels of eosinophils compared to vehicle-treated controls: significantly reduced
[3]
  infiltrating white blood cells in bronchoalveolar lavage fluid: dose-dependent decrease in infiltrating white blood cells
basophils
  time at which basophil decline reached plateau: ~4 month
Eosinophils [4]; 150 mg/day group
  mean eosinophils at week 16 recovered to, of baseline levels: 47%
Eosinophils [4]; 300 mg/day group
  mean eosinophils at week 16 recovered to, of baseline levels: 73%
Eosinophils [4]; ALS subjects, Phase 2
  effect on eosinophil counts: dose- and time-dependent decrease in eosinophil counts
Eosinophils [4]; one Phase 2 subject, Part 2 baseline, persisted through month 12
  effect on eosinophil counts in a subject with hypereosinophilia at baseline: decrease in eosinophil counts
Eosinophils [5]; minipig, in vivo
  safety assessment of eosinophil differences: not considered adverse
Eosinophils [5]; minipigs, 0, 7.5, 25 and 75 (50 from Study Day 46) mg/kg daily oral gavage, 39 weeks
  effect on eosinophils: dose- and time-dependent reduction in eosinophils
[6]
  tolerability: well-tolerated

Reference: US10828284B2, “Compositions and methods for treating conditions related to elevated levels of eosinophils and/or basophils” (Knopp Biosciences LLC, priority 2013, dated 2020)
